Test results: patent US20260041653A1, “AN HDAC INHIBITOR FOR TREATING CANCER WITH A MODIFIED STK11 ACTIVITY OR EXPRESSION” (Tango Therapeutics, Inc., priority 2022, published 2026)
Marks after values point to notes of the source that are not given here.

Tests used:
[1] = Caverage in mice with STK11-deleted MC38 tumors; format: in vivo, mouse; conditions: doses used in FIG. 12B and 12C
HDAC10 = target: T1, HDAC10 (Homo sapiens, UniProt Q969S8); test: Cellular NanoBRET assay, HDAC10; format: cell-based
T1 construct: expressed in transfected cells
T1 sequence (Q969S8 whole entry): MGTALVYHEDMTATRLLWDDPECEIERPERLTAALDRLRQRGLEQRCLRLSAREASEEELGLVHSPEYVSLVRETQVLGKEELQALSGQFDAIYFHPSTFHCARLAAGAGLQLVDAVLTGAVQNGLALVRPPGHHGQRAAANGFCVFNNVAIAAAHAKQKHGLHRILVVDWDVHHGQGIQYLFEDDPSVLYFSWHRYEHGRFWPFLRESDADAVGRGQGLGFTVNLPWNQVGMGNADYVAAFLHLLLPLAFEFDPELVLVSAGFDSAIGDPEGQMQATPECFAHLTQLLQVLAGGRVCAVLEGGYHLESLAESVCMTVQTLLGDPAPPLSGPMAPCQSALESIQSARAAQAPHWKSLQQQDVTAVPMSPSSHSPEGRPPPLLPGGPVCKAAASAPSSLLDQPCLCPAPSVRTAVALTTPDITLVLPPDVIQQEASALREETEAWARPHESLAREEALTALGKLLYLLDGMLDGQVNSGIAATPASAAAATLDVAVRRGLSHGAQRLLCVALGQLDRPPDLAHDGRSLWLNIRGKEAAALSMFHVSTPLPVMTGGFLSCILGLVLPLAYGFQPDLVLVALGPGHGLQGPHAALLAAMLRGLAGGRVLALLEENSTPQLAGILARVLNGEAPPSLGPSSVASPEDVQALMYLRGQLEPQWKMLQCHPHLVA

| Cavg, u [1] | IC50 (HDAC10) [µM] | SMILES |
| --- | --- | --- |
| 0.132* uM | – | O=C(CCCCCCC(=O)Nc1ccccc1)NO [Vorinostat, reference compound] |
| – | > 30 | Nc1cc(F)ccc1NC(=O)c1ccc(CNC(=O)/C=C/c2cccnc2)cc1 [Chidamide, reference compound] |
